What all share (assay type): cell-based
The subject of experiment [1] is TNF-α production in concanavalin-A stimulated primary human CD4+ T-lymphocytes. Briefly: TNF-α production in Con-A stimulated human CD4+ T-cells (ELISA). As to conditions: T-lymphocyte, X marks this range. The procedure:
Activated T-lymphocytes are known to produce TNF-α and may constitute a significant source of this important inflammatory mediator in localized regions of inflammation such as the rheumatoid synovium or psoriatic lesions. Supernatants from cona-stimulated primary human CD4+ T-cells that had been incubated in the presence or absence of a test compound were analyzed for TNF-α using an ELISA system. (Pharingen; recommended anti-TNF antibody set 18631-D and 18642-D). Substantial quantities of TNF-α were induced in vehicle treated T-cells stimulated with conA. […] This may be due to the differing sensitivity of monocyte/macrophages versus T-lymphocytes to elevations in intracellular cAMP with respect to regulatory pathways impacting TNF-α production.
(§1) Approximately 60 cc of whole human blood was collected into ACD anti-coagulant vacutainer tubes. 15 mL Ficoll Paque 1077 was aliquoted into 6 sterile 50 mL conical tubes. 10 mL of blood was slowly layered on top of the Ficoll Paque by holding the tube upright and resting the pipette tip at the inside edge of the tube and allowing the blood to slowly run down the side of the tube. Tubes were spun at 1700 rpm for 30 minutes at room temperature. The plasma layer above the leukocyte band was aspirated off and a pasteur pipette was used to lift off the leukocyte band and transfer it to a sterile 50 mL conical tube. Cells from each leukocyte gradiant tube were transferred to a separate 50 mL conical tube. Sterile PBS pH 7.4 was added to each 50 mL conical tube containing cells from leukocyte band to a volume of 50 mL. Tubes were spun at 1100 rpm for 10 minutes. Supernatant was aspirated off and the cells were resuspended in 50 mL PBS pH 7.4. Tubes were re-centrifuged at 1100 rpm for 10 minutes. Supernatant was aspirated off and the cells were resuspended in appropriate medium at a density of 5×10^7 cells/mL or 2×10^6 cells/mL.
(§2) CD 4+T-cell Preparation: Cells from Leukocyte preparation were resuspended in sterile PBS pH 7.4 supplemented with 2-6% Fetal Bovine Serum (FBS) at a density of 5×10^7 cells/mL. Cells were then ready for isolation.
(§3) 100 μL of antibody cocktail (Stem Cell Technologies, Catalogue No. 14062) was added for each mL of cells and mixed well. Cells+Ab cocktail was incubated on ice for 30 minutes. After 30 minute incubation, 60 μL of magnetic colloid was added for each mL of cells, and mixed well. Cells+Ab cocktail+magnetic colloid were incubated on ice for 30 minutes. After a final 30 minute incubation cells were ready for magnetic cell separation.
(§4) Sample was loaded into the top of a column. The stopcock was turned to allow the flow of media down through the column, and the media was collected into a collection tube. PBS supplemented with 2-6% FBS was added to the column until three column volumes had been collected (not including the volume of the start sample). Cells were washed, counted, and resuspended in RPMI 1640 with 10% FBS+2 mM L-glutamine at a density of 1×10^6 cells/mL.
(§5) CD4+ T-cells were isolated as described above. Cells were suspended in RPMI 1640 media (Stem Cell Technologies Inc.; Catalogue No. 36750) with 10% FBS+2 mM L-glutamine at a density of 1×10^6 cells/mL. Cells were maintained on ice as test compounds were prepared. Test compounds were prepared in a sterile 96-well assay plate at 50×the final desired test concentration, all wells contained an equal amount of dimethylsulfoxide vehicle. 500 μL of CD4^+ T-cells were added to each well of 24-well assay plate. 10 μL of each test compound working solution was added to the appropriate wells; two wells were left as stimulated and non-stimulated controls. 10 μL of concanavalin A (50×the final concentration) at 10 μg/mL was added to each well with the exception of the non-stimulated control wells. Cells were incubated at 37° C. for 48 hours. Conditioned media is then assessed by ELISA for the quantity of IL-2, […], TNFα and IL-10 present.

Experiment [2] deals with IL-2 production in concanavalin A stimulated primary human CD4+ T-cells. As to the kind of experiment: IL-2 production (Th1 profile) in concanavalin A stimulated primary human CD4+ T-cells. As to conditions: for IC50: Homo sapiens, T-cell, 10 μg/mL Concanavalin A, 48 hours, X marks this range; for Th1 versus Th2 cytokine profile: conA stimulated CD4+ selected cells.
Excerpt: The assay on the primary human T-cells involves their activation by concanavalin A (conA); (Sigma, Catalogue No. C 5275), followed by ELISA detection for cytokines for either profile. In the case of Th1-profiles, IL-2 and INF-γ are used as benchmarks while IL-10 is the indicator for a Th2-profile. Biologically, these indicators are useful in that IL-2 is the major T-cell mitogen while IL-10 represents a powerful yet selective immunosuppressive agent.
as §1, §2, §3, §4, §5
Tables 5A, 5B and 5C represent a synopsis of data across individuals with respects to the potency of compounds of the invention in their ability to inhibit cytokines that are likely to promote or depress a Th1 or Th2 response. […]

In experiment [3] the test system is cAMP response element luciferase activity in human U937 monocytic cells. Briefly: Potentiation of forskolin-induced CRE-luciferase activity in U937 cells. The conditions noted are these: U-937, U937 cells co-incubated with 10 μM forskolin, 4 hours, X marks this range. An outline of the steps: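 U937 cells electroporated with PCRE-luc reporter, recovered 16-18 h, then exposed to compound or vehicle with or without 10 μM forskolin for 4 h at 37 °C. Cell lysates read for luciferase luminescence.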

Setting [4] is: read-out: TNF-alpha IC50 RANGE (μM) <2.
[5] abbreviates: read-out: IL-2 IC50 RANGE (μM) 0.02-0.2.
The mark [6] stands for this setting: read-out: TNF-alpha IC50 RANGE (μM) 2.0-20.
The mark [7] stands for this setting: read-out: IL-2 IC50 RANGE (μM) 0.2-2.0.
[8] abbreviates: read-out: EC50 range (μM) 0.1-1.

Like-named read-outs stand apart in the source and are kept apart here.

Consider `COc1ccc([C@H]2CNC(=O)C(Cc3ccc(OCc4ccccc4)c(OC)c3)C2)cc1OC` (stereo partly drawn) [Compound 54], for which the IC50 in experiment [1] (setting [4]) was under 2 µM; in experiment [2] (setting [5]), 0.02 to 0.2 µM. Besides, in experiment [2], the “Th1 versus Th2 cytokine profile” value is listed as “selective inhibition of a Th1 profile”. The EC50 in experiment [3] (read-out: EC50 range (μM) 1-25) lay in the range of 1 to 25 µM.
On to `COc1cc(CC2C[C@@H](c3ccc(OC)c(OC)c3)CNC2=O)ccc1O` (stereo partly drawn) [Compound 55], for which the IC50 in experiment [1] (setting [6]) lay in the range of 2 to 20 µM; in experiment [2] (setting [7]) it was 0.2 to 2 µM. In experiment [3] (read-out: EC50 range (μM) 1-25), the EC50 fell in the range of 1 to 25 µM.
For the compound `COc1cc(CC2C[C@@H](c3ccc(OC)c(OC4CCCC4)c3)COC2=O)ccc1O` (stereo partly drawn) [Compound 43], the IC50 is 2 to 20 µM in experiment [1] (setting [6]) and 0.2 to 2 µM in experiment [2] (setting [7]). Besides, the EC50 in experiment [3] (setting [8]) was 0.1 to 1 µM.
With `COc1cc(C[C@@H]2C[C@@H](c3ccc(OC)c(OC)c3)COC2=O)ccc1O` [Compound 30], the IC50 is 2 to 20 µM in experiment [1] (setting [6]) and 0.02 to 0.2 µM in experiment [2] (setting [5]). Also, the “Th1 versus Th2 cytokine profile” value in experiment [2] was “selective inhibition of a Th1 profile”. Besides, in experiment [3] (read-out: EC50 range (μM) 1-25), the half-maximal effective concentration (EC50) was in the range of 1 to 25 µM.
Turning to `COc1cc(CC2C[C@@H](c3ccc(OC)c(OC4CCCC4)c3)CNC2=O)ccc1O` (stereo partly drawn) [Compound 62], the figures for the IC50 in experiment [1] (setting [4]) and in experiment [2] (setting [7]) were under 2 µM and 0.2 to 2 µM, respectively. The EC50 in experiment [3] (read-out: EC50 range (μM) 1-25) fell in the range of 1 to 25 µM.
Turning to `COc1cc(C[C@@H]2CC(c3ccc(OC)c(OC)c3)COC2=O)ccc1O` (mixture of isomers) [Compound 12], the EC50 in experiment [3] (read-out: EC50 range (μM) 1-25) lay in the range of 1 to 25 µM.
In the case of `COc1ccc(C2CNC(=O)C2)cc1OC1CCCC1` (stereo not drawn) [Rolipram, reference compound], the IC50 in experiment [1] (setting [4]) is under 2 µM; in experiment [2] (read-out: IL-2 IC50 RANGE (μM) 2.0-20) it was 2 to 20 µM.
Turning to `COc1ccc([C@@H]2CCC(=O)OC2)cc1OC1CCCC1` [Compound 41], in experiment [3] (setting [8]), the EC50 fell in the range of 0.1 to 1 µM.

The values above are taken from US20030186943A1, “Substituted gamma-phenyl-delta-lactams and uses related thereto” (Inflazyme Pharmaceuticals Ltd., priority 1998, published 2003).
